Source: the supplement of paper PMC6470124

How the values were obtained:
[1] = absolute recovery over vacuum-assisted evaporative concentration; higher = better recovery; details: enrichment method: VEC
In short: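 Samples of influent (6 mL), effluent (15 mL) and surface or nanopure water (60 mL) were spiked with standards before or after concentration, or left unspiked, at 200 ng/L (nanopure/surface) or 1000 ng/L (wastewater), adjusted by class and compound. Concentration was by evaporation at 55 °C and 20 mbar to about 0.3 mL, followed by adjustment to 0.4 mL and centrifugation. Internal standards were then added for LC-HRMS/MS analysis. Absolute recovery was (response ratio pre − unspiked)/(post − unspiked) × 100, using averages of ≥ 2 replicates.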

[2] = absolute recovery over mixed-bed multilayer solid-phase extraction; higher = better recovery; details: enrichment method: SPE
In short: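 Absolute recovery rests on background-corrected response ratios of pre- versus post-spiked samples, averaged over at least two replicates. Wastewater (100–250 mL, pH 6.5, glass-fibre filtered) was spiked at 1000 ng/L and unfiltered nanopure water (1000 mL) at 200 ng/L, before or after three-layer mixed-bed cartridge extraction or not at all, with exceptions for some classes. Analysis after internal standard addition used liquid chromatography with high-resolution tandem mass spectrometry in both ionisation modes.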

[3] = LC retention time (Atlantis T3, 5-95% MeOH gradient, 0.1% formic acid); higher = more retained / less polar
In short: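 Retention times were recorded for reference standards (purity ≥ 95%) on a polar reversed-phase C18 column (Atlantis T3, 3 × 150 mm, 3 μm) at 0.3 mL/min. Elution used water and methanol, each with 0.1% formic acid, in a gradient from 5 to 95% methanol over 17.5 min. Detection was by high-resolution tandem mass spectrometry on a QExactive Plus, with positive and negative electrospray in separate runs. Peaks were found and integrated in TraceFinder (5 ppm tolerance, at least three points per peak) and then checked by hand.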

| Structure (SMILES) | absolute recovery ([1]; wastewater effluent) [%] | absolute recovery ([1]; wastewater influent) [%] | absolute recovery ([2]; nanopure water) [%] | absolute recovery ([2]; surface water) [%] | absolute recovery ([2]; wastewater effluent) [%] | absolute recovery ([2]; wastewater influent) [%] | LC retention time [3] [min] |
| --- | --- | --- | --- | --- | --- | --- | --- |
| CCNC(=O)NC(=O)C(C#N)=NOC [Cymoxanil] | 53.4 | 69.8 | 98.4 | 83.5 | 87.9 | 115 | 15.2 |
| CN(C)c1nc(=O)n(C2CCCCC2)c(=O)n1C [Hexazinon] | 106 | 92.6 | 96.4 | 93.7 | 94.3 | 88.8 | 17.2 |
| N#Cc1cc(I)c([O-])c(I)c1 [Ioxynil] | 106 | 111 | 103 | 102 | 99.4 | 96.2 | 19.3 |
| CCC[NH+](CC)CC1COC2(CCC(C(C)(C)C)CC2)O1 (configuration not stated) [Spiroxamin] | 91.4 | 66.6 | 83 | 102 | 90.3 | 71.8 | 16.9 |
| COc1cccc2c1C(=O)c1c(O)c3c(c(O)c1C2=O)CC(O)(C(=O)CO)CC3OC1CC([NH3+])C(O)C(C)O1 (configuration not stated) [Doxorubicin] | 38.8 | 45.5 | 40.5 | 19.3 | 28.1 | 53.3 | 15.8 |
| CC(C)CC(C[NH3+])CC(=O)[O-] (racemic) [Pregabalin-rac] | 108 | 101 | 16.3 | 2 | 2.6 | – | 10.3 |
| CON=C(C(=O)OC)c1ccccc1COc1ccccc1C [Kresoxim-methyl] | 98.9 | 89.9 | 103 | 110 | 103 | 93.5 | 20.7 |
| CNC(=O)ON=C(C)SC [Methomyl] | 98.3 | 110 | 82.7 | 77.3 | 79 | 79.3 | 11.9 |
| CCc1cccc(C)c1N(C(=O)CCl)C(C)COC (configuration not stated) [Metolachlor] | 93.1 | 91.7 | – | 93 | 90.6 | 92.5 | 20.6 |
| CCCN(CCOc1c(Cl)cc(Cl)cc1Cl)C(=O)n1ccnc1 [Prochloraz] | 103 | 101 | 99.3 | 96.4 | 93.9 | 92.3 | 20.6 |
| CCOP(=O)(OCC)OCC [Triethylphosphat] | 83.5 | 79.6 | 76.6 | 87.7 | 81.5 | – | 15.9 |
| COCCOCCOCCOCCOC [Tetraglyme] | 103 | 112 | 80.5 | 83.7 | 83.5 | 99.6 | 13.2 |
| CN1CC[NH+]=C(c2ccccc2)c2cc(Cl)ccc21 [Medazepam] | 103 | 109 | 83.9 | 95.2 | 93.6 | 68.8 | 14.5 |
| O=C([O-])COc1ccc(Cl)cc1Cl [2-4-D] | 103 | 106 | 95.6 | 94 | 93.5 | 91.2 | 19.3 |
| CN(C)C(=O)NC1CCCCCCC1 [Cycluron] | 92.5 | 106 | 91.4 | 91.2 | 89.2 | 94.2 | 18.8 |
| CC(C)N(C(=O)COc1nnc(C(F)(F)F)s1)c1ccc(F)cc1 [Flufenacet] | 114 | 95.3 | 100 | 95.9 | 97.5 | 83.5 | 20.1 |
| CC(O)C(=O)Nc1c(I)c(C(=O)NC(CO)CO)c(I)c(C(=O)NC(CO)CO)c1I (configuration not stated) [Iopamidol] | 107 | 103 | 59.6 | 64.5 | 70 | 53 | 7.78 |
| COc1cccc(C2(O)CCCCC2C[NH3+])c1 (configuration not stated) [N-Bisdesmethyl-Tramadol] | 105 | 98.5 | 50.1 | 47.4 | 46.3 | 70.2 | 12.8 |
| COC(=O)N(OC)c1ccccc1COc1ccn(-c2ccc(Cl)cc2)n1 [Pyraclostrobin] | 87.5 | 90.7 | 101 | 98 | 91.5 | 99.3 | 21.1 |
| COC(=O)Nc1nc2ccccc2[nH]1 [Carbendazim] | 105 | 103 | 96.1 | 94.3 | 93.2 | 94.1 | 10.8 |
| CC(C)[NH+](CCC(C(N)=O)(c1ccccc1)c1ccccn1)C(C)C (configuration not stated) [Disopyramide] | 98.1 | 106 | 90 | 94.4 | 92 | 104 | 12.2 |
| N#Cc1cc(Br)c([O-])c(Br)c1 [Bromoxynil] | 101 | 90.3 | 92.1 | 82.5 | 86.9 | 108 | 18.6 |
| CC(C)N(C(=O)CS(=O)(=O)[O-])c1ccccc1 [Propachlor-ESA] | 108 | 96.6 | 93.1 | 94.4 | 91.1 | 96.4 | 19.4 |
| CN1C(=O)CN=C(C2=CCCCC2)c2cc(Cl)ccc21 [Tetrazepam] | 105 | 100 | 86.9 | 63.8 | 64.4 | 72.4 | 19.9 |
| O=C(Nc1ccc(F)cc1F)c1cccnc1Oc1cccc(C(F)(F)F)c1 [Diflufenican] | 106 | 101 | 96.6 | 92.4 | 88 | 87.2 | 21.4 |
| CCOc1cc(Oc2ccc(C(F)(F)F)cc2Cl)ccc1[N+](=O)[O-] [Oxyfluorfen] | 87.1 | 92.7 | 93.8 | 83.9 | 82.2 | 108 | 21 |
| CCCCOCCOCCOCc1cc2c(cc1CCC)OCO2 [Piperonyl-butoxide] | 125 | 88.2 | 75.2 | 66.7 | 88.9 | – | 22.7 |
| COC(=O)c1sccc1S(=O)(=O)[N-]C(=O)Nc1nc(C)nc(OC)n1 [Thifensulfuron-methyl] | 104 | 114 | 98.9 | 95 | 93.4 | 92.3 | 16.7 |

The next lines start with the values.

| absolute recovery ([1]; wastewater effluent) [%] | absolute recovery ([1]; wastewater influent) [%] | absolute recovery ([2]; nanopure water) [%] | absolute recovery ([2]; surface water) [%] | absolute recovery ([2]; wastewater effluent) [%] | absolute recovery ([2]; wastewater influent) [%] | LC retention time [3] [min] | Structure (SMILES) |
| --- | --- | --- | --- | --- | --- | --- | --- |
| 104 | 108 | 75.6 | 63.6 | 77 | 124 | 23.4 | O=C([O-])c1cc(Oc2ccc(Cl)cc2Cl)ccc1[N+](=O)[O-] [Bifenox-acid] |
| 89.3 | – | 103 | 112 | 104 | 64.6 | 15.6 | Nc1ccn(C2OC(CO)C(O)C2O)c(=O)n1 (configuration not stated) [Cytarabin] |
| 106 | 109 | 59.5 | 65.4 | 65.1 | 81.3 | 10.8 | C[NH2+]CCC(c1ccccc1)c1ccccn1 (configuration not stated) [N-desmethylpheniramine] |
| 108 | – | 45.5 | 7.1 | 10.1 | – | 3.5 | C[NH+](C)C(C)(C)CO [2-(Dimethylamino)-2-methyl-1-propanol] |
| 102 | 92.6 | 86.5 | 90 | 85.3 | 86.5 | 11.3 | CC[NH+](CC)CCNC(=O)c1cc(Cl)c(N)cc1OC [Metoclopramid] |
| 106 | 103 | 82.7 | 83.1 | 86.3 | 83.9 | 12.3 | CC(C)(C)[NH2+]CC(O)COc1nsnc1N1CCOCC1 (configuration not stated) [Timolol] |
| 108 | 132 | 107 | 101 | 99.8 | 96.3 | 16.5 | Cc1ccc(NC=O)c(C)c1 [2-4-dimethylphenylformamid] |
| 104 | 99.4 | 96.9 | 97.3 | 90.7 | 92.5 | 18.7 | CCOc1nc2cccc(C(=O)[O-])c2n1Cc1ccc(-c2ccccc2-c2nnn[n-]2)cc1 [Candesartan] |
| 96.6 | 58.2 | 81 | 78.3 | 76.4 | 87.1 | 17.3 | CC12C=CC(=O)C=C1CCC1C2C(=O)CC2(C)C1CCC2(O)C(=O)CO (configuration not stated) [Prednisone] |
| 98.5 | – | 84.5 | – | 118 | – | 21 | CC(C)Cc1ccc(C(C)C(=O)[O-])cc1 (configuration not stated) [Ibuprofen] |
| 90.5 | 94.2 | 89 | 95.6 | 91.9 | 144 | 15.1 | COc1ccc(C2Sc3ccccc3N(CC[NH+](C)C)C(=O)C2OC(C)=O)cc1 (configuration not stated) [Diltiazem] |
| 102 | 105 | 90.4 | 94.7 | 90.6 | 98.9 | 12.2 | CC[N+]([O-])(CC)CC(=O)Nc1c(C)cccc1C [Lidocaine-N-Oxide] |
| 104 | 103 | 96.1 | 93 | 92.5 | 92 | 8.25 | CC(C)[NH2+]CC(O)c1ccc(NS(C)(=O)=O)cc1 (configuration not stated) [Sotalol] |
| 109 | 106 | 82.5 | 83 | 81.8 | 87.2 | 11.7 | CCC[NH2+]C(C)C(=O)Nc1ccccc1C (configuration not stated) [Prilocain] |
| 108 | 90.7 | 96 | 92.9 | 96.6 | 15.6 | 16.1 | COC(=O)c1cc(C(=O)OC)cc(S(=O)(=O)[O-])c1 [Dimethyl-5-Sulfoisophthalate] |
| 83.5 | 142 | 72.3 | 74.2 | 67.2 | 81.4 | 6.08 | CNC(=C[N+](=O)[O-])NCCS(=O)Cc1ccc(C[NH+](C)C)o1 (configuration not stated) [Ranitidin-S-oxid] |
| 85.7 | 89.8 | 80.1 | 89.2 | 91.8 | 103 | 12.8 | COc1ccc2c(c1OC)C(=O)OC2C1c2c(cc3c(c2OC)OCO3)CC[NH+]1C (configuration not stated) [Noscapin] |
| 91.3 | – | 61.2 | 10.8 | 21.2 | 33.4 | 18.4 | Cc1onc(-c2ccccc2)c1C(=O)NC1C(=O)N2C1SC(C)(C)C2C(=O)[O-] (configuration not stated) [Oxacillin] |
| 75.3 | 70.8 | 86.2 | – | 73.8 | 143 | 20.9 | CC(C)CC(C)(O)C#CC(C)(O)CC(C)C (configuration not stated) [Surfynol-104A] |
| 97.7 | 104 | 88.2 | 97.5 | 95.8 | 96.2 | 17.5 | CC(C)(C)Nc1nc(N)nc(Cl)n1 [Terbutylazin-desethyl] |
| 99.2 | 104 | 91.5 | 102 | 97 | 101 | 10.2 | Cn1ncc(N)c(Cl)c1=O [Chloridazon-methyl-desphenyl] |
| 104 | 108 | 90.1 | – | 95.7 | 68.4 | 14.5 | C[NH+]1CCN2c3ccccc3Cc3ccccc3C2C1 (configuration not stated) [Mianserin] |
| 94.7 | 101 | 97 | 93.4 | 90.7 | 103 | 19.6 | COc1nc(NC(=O)[N-]S(=O)(=O)c2ccccc2C(F)(F)F)nc(C(F)(F)F)n1 [Tritosulfuron] |
| 103 | 105 | – | 94.3 | 92.3 | 96 | 15.6 | Cc1cccc(Nc2ccncc2S(=O)(=O)[N-]C(=O)NC(C)C)c1 [Torasemid] |
| 106 | 108 | 103 | 102 | 93.1 | 90.6 | 19.4 | COC(=O)c1cccc(C)c1S(=O)(=O)[N-]C(=O)Nc1nc(OCC(F)(F)F)nc(N(C)C)n1 [Triflusulfuron-methyl] |
